One experiment has as its system E. coli M15 cells. As to the kind of experiment: Bacterial growth (OD600) in the presence of toxin. Format: cell-based, Escherichia coli. The settings on record: for growth of non-transgenic bacteria: E. coli M15 with empty vector pQE30, 4 h at 37° C.; for ΔOD600 (growth of transgenic bacteria): E. coli M15 with pQETMT1, 4 h at 37° C. The protocol:
E. coli M15 cells transformed with the empty vector pQE30 (referred to as non-transgenic bacteria) or pQETMT1 (hereafter referred to as transgenic bacteria) were grown as 15 ml starter cultures in LB medium supplemented with 100 μg/ml ampicillin and […] kanamycin at 37° C. for 16 h. 5 ml of each culture was then transferred to 100 ml of fresh LB medium containing the same concentrations of both antibiotics and cultures grown to an OD600 of 0.6. […] In the culture tubes, expression of the recombinant TMT protein was induced by adding […] (IPTG) to a final concentration of 1 mM. All the culture tubes were incubated at 37° C. for another 4 h. Bacterial growth at different toxin concentrations was measured by optical density (OD600) and the difference in OD600 (ΔOD600) was calculated.

Another experiment has as its system HEK 293 cells. As to the kind of experiment: Growth of transfected HEK 293 cells monitored by GFP fluorescence. Format: cell-based. The settings on record: 0-200 mM toxin, 24 h. The protocol:
A TMT insert was generated by linearizing pBluescript vector harboring the full-length clone (described in Example 2) with SpeI and ApaI and inserted into the pTracer™-SV40 mammalian expression plasmid. This vector contains a cycle-3-GFP, an improved Green Fluorescent Protein gene fused to Zeocin™ resistance gene for selection in mammalian cells. Transfection of HEK 293 cells was carried out in 24 well plates using Fugene 6™ Transfection reagent (Roche Molecular Biochemicals). A ratio of DNA to Fugene of 1:6 and 200 or 400 ng of DNA were used. Each well was seeded with 2×10^5 cells grown in a monolayer for 16 h in […] DMEM containing 10% serum. Transfection was performed on 90% confluent cells. Prior to transfection, the medium containing serum was removed and replaced with 150 μl of serum-free medium in each well. A DNA/Fugene 6 mixture was incubated for 15 min at room temperature and 100 μl of this mixture was added drop-wise to each well while cells were gently rocked. After a 3 hour incubation, another 250 μl DMEM containing 2× serum was added to each well and cells were further incubated for 48 h. […] These cells were allowed to grow for another 24 h. Growth was monitored by fluorescent microscopy to detect the presence of GFP. […] The emission of CH3I was then monitored by gas chromatography.

In the next experiment the test system is A. thaliana plants. As to the kind of experiment: In vivo TMT activity in 3 Arabidopsis phenotypes grown on SCN. The protocol: (§1) In vivo assay: This assay was used in the studies described herein. In vivo TMT activity is measured in 10 leaf disks placed on a Whatman filter paper (4.25 cm) in a 50-ml Erlenmeyer flask, and incubated with 2 ml of a 100 mM KI solution (Saini et al., [1995] Plant, Cell and Environment, 18:1027-1033). The flask is sealed with a rubber stopper and CH3I formed in the headspace is quantified after 2 h by gas chromatography. Assays for alternative substrates or inhibitors of the enzyme contained 20 mol m^−3 KI (the known substrate) and a range of concentrations of the compound to be tested. In the assay for HS^− methylation, KI in the above assay is replaced with 20 mM (NH4)2S.
With reference to FIG. 36, the effect of SCN on TMT activity in 3 Arabidopsis phenotypes was analysed. […] As the concentration of SCN increased the TT and Tt plants were less and less able to methylate the SCN. TT plants could methylate the SCN up to 10 mM while the Tt had no activity after 2.5 mM, as it appears that higher levels of SCN may have some toxicity to the heterozygote plant.

Another experiment concerns tobacco plants. As to the kind of experiment: In vivo TMT activity of tobacco plants grown on SCN. The following applies: transgenic tobacco plant. The method, then:
as §1
With reference to FIG. 34, the effect of SCN on in vivo TMT activity of transgenic/non-transgenic tobacco plants was analysed. […] As the concentration of SCN increased to 5 mM, the transgenic plant was able to methylate the SCN but beyond 5 mM, the activity decreased as higher SCN levels appear to confer some toxicity to the plant.

The subject of a further experiment is potato roots. As to the kind of experiment: Potato root growth on MS with toxin (WinRhizo root length). The following applies: increasing toxin concentration, 10 days, transgenic and non-transgenic roots. More on the design: species or system Solanum tuberosum cv Russet Burbank. The text has this:
pBluescript plasmid harboring the full-length TMT1clone (SEQ ID NO:1) was linearized with BamHI and KpnI and cloned in a sense orientation into the binary pBin19 double enhancer vector between the 35S promoter of CaMV and the Nos terminator. Agrobacterium rhizogenes wild-type strain A4 was then transformed either with the pBin/TMT vector or pBin vector alone. Freshly cut Solanum tuberosum cv Russet Burbank petioles were decontaminated by soaking in diluted commercial bleach (10%) containing 0.01% Tween-20™ for 10 min, followed by three 10 min washes in sterile water. The petioles were then cut into 4 cm segments and cultured apical side down in MS medium containing 0.4% phytagel™. The upper parts of the petioles were infected with freshly streaked A. rhizogenes A4 carrying the pBin19 vector alone (non-transgenic roots) or with the pBin vector with the TMT insert (transgenic roots). Roots started appearing after about 10 days. […]
Every 2 weeks, the carbenicillin concentration was halved until no carbenicillin was present in the medium. All roots were then screened for TMT activity using an in vivo technique where KI in solution (100 mM) was added to the roots and emission of CH3I was detected using gas chromatography. […] The roots were placed in MS containing 0.2% phytagel and allowed to grow for 10 days after which the growth was measured using WinRhizo™ software.

Where only a bound is given, the exact number is not on record here.

Regarding `I` [KI], in the experiment with E. coli M15 cells (250 mM KI), the “growth of non-transgenic bacteria” value was “growth of the non-transgenic bacteria was halted” and the “ΔOD600 (growth of transgenic bacteria)” value came to 0.547. In addition, the “GFP fluorescence (cell viability), transgenic vs non-transgenic cells” value with HEK 293 cells was “more fluorescence in the transgenic than in the non-transgenic cells”.

Regarding `N#C[S-].[Na+]` [NaSCN], the “SCN concentration up to which plants could methylate SCN (TMT activity)” value in the experiment with A. thaliana plants (TT (wild type) plants) is reported as “up to 10 mM”. Further, the “SCN concentration after which there was no TMT activity” value in the experiment with A. thaliana plants (Tt (heterozygous) plants) is listed as above 2.5 mM. The “SCN concentration beyond which in vivo TMT activity decreased” value in the experiment on tobacco plants is above 5 mM. In the experiment with E. coli M15 cells (200 mM NaSCN), the “growth of non-transgenic bacteria” value was “halted non-transgenic bacterial growth” and the “ΔOD600 (growth of transgenic bacteria)” value was 0.377. Further, the “GFP fluorescence (cell viability), transgenic vs non-transgenic cells” value with HEK 293 cells is recorded as “more fluorescence in the transgenic than in the non-transgenic cells”. In the experiment with potato roots, the “root growth (root length)” value was “growth of both transgenic and non-transgenic roots was affected”.

The record behind these values is US20070169214A1, “Thiol methyltransferase-based selection” (priority 2004, published 2007).
